Results taken from US20090048269A1 (AstraZeneca AB, priority 2007, published 2009).

Biological target: T1, human ALK5 (Homo sapiens, UniProt P36897)
T1 sequence (P36897 162-503): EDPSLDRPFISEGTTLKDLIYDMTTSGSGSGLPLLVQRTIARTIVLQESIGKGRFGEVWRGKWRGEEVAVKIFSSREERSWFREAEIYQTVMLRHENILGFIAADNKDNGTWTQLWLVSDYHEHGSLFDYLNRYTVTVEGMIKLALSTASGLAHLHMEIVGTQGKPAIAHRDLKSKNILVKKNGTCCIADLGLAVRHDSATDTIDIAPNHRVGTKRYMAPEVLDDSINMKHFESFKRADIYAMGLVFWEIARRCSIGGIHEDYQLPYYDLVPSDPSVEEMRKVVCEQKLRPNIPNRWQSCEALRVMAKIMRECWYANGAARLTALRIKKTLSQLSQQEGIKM
Test: ALK5 Enzyme Assay 2 (fluorescence polarisation probe displacement)
Type: binding
Parameters: 6His tagged human ALK5 (residues162-503) was grown and purified from insect cells; 6His; made in house; host or cells: insect cells
Conditions: read-out: EAA2: activity (μM) using Enzyme Assay 2
Procedure: The ability of a compound to bind and inhibit ALK5 can be measured by its capacity to displace a probe molecule from recombinant ALK5 in an in vitro assay. Provided the probe molecule is derivatised with a fluorescent probe or is fluorescent itself, the binding affinity can be measured using Fluorescence Polarisation (FP). […] Assay measurements were performed in 50 mM HEPES pH7.4, 10 mM MgCl2, 1 mM DTT, 0.01% CHAPS in a final assay volume of 12 μl. Briefly 6 μl of ALK5 protein, final concentration of 3 μg/mL, was added to each well of a 384 well assay plate containing 12 nL of each concentration of test compound dissolved in DMSO. 6 μL of a solution containing an ALK5 FP probe ((2Z)-3-(6-{4-[2-({4-[(6-chloro[1,3]dioxolo[4,5-b]pyridin-7-yl)amino]-5-(1-methylethoxy)quinazolin-7-yl}oxy)ethyl]piperazin-1-yl}-6-oxohexyl)-2-[(2E,4E)-5-(3-ethyl-1,1-dimethyl-6,8-disulfo-1H-benzo[e]indolium-2-yl)penta-2,4-dien-1-ylidene]-1,1-dimethyl-6-sulfo-2,3-dihydro-1H-benzo[e]indole-8-sulfonate), final concentration 50 nM, and ATP, final concentration 1 μM.

In order of falling IC50:
1. Cc1ccc(Oc2ccnc(Nc3ccc(S(=O)(=O)NCCN4CCCCC4)cc3)c2)c(C)n1 [Example 134, 4-{[4-(2,6-Dimethylpyridin-3-yl)oxypyridin-2-yl]amino}-N-(2-piperidin-1-ylethyl)benzenesulfonamide]  0.199 µM
2. Cc1ccc(Oc2ccnc(Nc3cccc(C#N)c3)c2)c(C)n1 [Example 125, 3-{[4-(2,6-Dimethylpyridin-3-yl)oxypyridin-2-yl]amino}-benzonitrile]  0.192 µM
3. CNS(=O)(=O)c1ccc(Nc2cc(Oc3ccc(C)nc3C)ccn2)cc1 [Example 108, 4-{[4-(2,6-Dimethylpyridin-3-yl)oxypyridin-2-yl]amino}-N-methylbenzenesulfonamide]  0.171 µM
4. Cc1ccc(Oc2ccnc(Nc3ccc(C(=O)NCCN4CCC(F)(F)CC4)cc3)c2)c(C)n1 [Example 219, N-[2-(4,4-Difluoropiperidin-1-yl)ethyl]-4-{[4-(2,6-dimethyl-pyridin-3-yl)oxypyridin-2-yl]amino}benzamide]  0.108 µM
5. Cc1ccc(Oc2ccnc(Nc3ccc(S(=O)(=O)NCCn4cccn4)cc3)c2)c(C)n1 [Example 136, 4-{[4-(2,6-Dimethylpyridin-3-yl)oxypyridin-2-yl]amino}-N-(2-pyrazol-1-ylethyl)benzenesulfonamide]  0.101 µM
6. Cc1ccc(Oc2ccnc(Nc3ccc(S(C)(=O)=O)cc3)c2)c(C)n1 [Example 124, 4-(2,6-Dimethylpyridin-3-yl)oxy-N-(4-methylsulfonylphenyl)-pyridin-2-amine]  0.077 µM
7. Cc1cc(Oc2ccnc(Nc3cc(CO)cc(S(N)(=O)=O)c3)c2)c(-c2ccccn2)nc1C [Example 87, 3-{[4-(5,6-Dimethyl-2-pyridin-2-ylpyridin-3-yl)oxypyridin-2-yl]-amino}-5-(hydroxymethyl)benzenesulfonamide]  0.0731 µM
8. Cc1ccc(Oc2ccnc(Nc3cccc(C(=O)NCC(N)=O)c3)c2)c(C)n1 [Example 67, N-(2-Amino-2-oxoethyl)-3-{[4-(2,6-dimethylpyridin-3-yl)-oxypyridin-2-yl]amino}benzamide]  0.054 µM
9. Cc1ccc(Oc2ccnc(Nc3ccc(C(N)=O)cc3)c2)c(-c2ccc(F)cc2)n1 [Example 157, 4-({4-[2-(4-Fluorophenyl)-6-methylpyridin-3-yl]oxypyridin-2-yl}-amino)benzamide]  0.0474 µM
10. Cc1ccc(Oc2ccnc(Nc3cccc(CN4CCN(C(=O)OC(C)(C)C)CC4)c3)c2)c(C)n1 [Example 207, tert-Butyl 4-[(3-{[4-(2,6-dimethylpyridin-3-yl)oxypyridin-2-yl]-amino}phenyl)methyl]piperazine-1-carboxylate]  0.0384 µM
11. Cc1ccc(Oc2ccnc(Nc3ccc(C(=O)NCCN4CCS(=O)(=O)CC4)cc3)c2)c(C)n1 [Example 215, 4-{[4-(2,6-Dimethylpyridin-3-yl)oxypyridin-2-yl]amino}-N-[2-(1,1-dioxo-1,4-thiazinan-4-yl)ethyl]benzamide]  0.0362 µM
12. 3-{[4-(2,6-Dimethylpyridin-3-yl)oxypyridin-2-yl]amino}-N-(1-methylpiperidin-4-yl)benzamide [Example 70]  0.0323 µM
13. Cc1ccc(Oc2ccnc(Nc3ccc(CO)cc3)c2)c(-c2ccc(F)cc2)n1 [Example 158, [4-({4-[2-(4-Fluorophenyl)-6-methylpyridin-3-yl]oxypyridin-2-yl}-amino)phenyl]methanol]  0.0315 µM
14. Cc1ccc(Oc2ccnc(Nc3ccc(CC#N)cc3)c2)c(-c2ccccn2)n1 [Example 144, 2-(4-{[4-(6-Methyl-2-pyridin-2-ylpyridin-3-yl)oxypyridin-2-yl]-amino}phenyl)acetonitrile]  0.0276 µM
15. COc1cc(Nc2cc(Oc3ccc(C)nc3N3CCCC3)ccn2)cc(OC)c1OC [Example 164, 4-(6-Methyl-2-(pyrrolidin-1-yl)pyridin-3-yloxy)-N-(3,4,5-trimethoxyphenyl)pyridin-2-amine]  0.0275 µM
16. COc1cc(Nc2cc(Oc3ccc(C)nc3-c3ccc(F)cc3)ccn2)cc(OC)c1OC [Example 171, 4-[2-(4-Fluorophenyl)-6-methylpyridin-3-yloxy]-N-(3,4,5-trimethoxyphenyl)pyridin-2-amine]  0.0239 µM
17. COc1ccc(NC(=O)N2CCN(Cc3cccc(Nc4cc(Oc5ccc(C)nc5C)ccn4)c3)CC2)cc1 [Example 179, 4-[(3-{[4-(2,6-Dimethylpyridin-3-yl)oxypyridin-2-yl]-amino}phenyl)methyl]-N-(4-methoxyphenyl)piperazine-1-carboxamide]  0.0233 µM
18. COc1ccc(-c2nc(C)ccc2Oc2ccnc(Nc3cc(OC)c(OC)c(OC)c3)c2)cc1 [Example 168, 4-[2-(4-Methoxyphenyl)-6-methylpyridin-3-yl-oxy]-N-(3,4,5-trimethoxyphenyl)pyridin-2-amine]  0.0228 µM
19. Cc1ccc(Oc2ccnc(Nc3cccc(C(=O)N(C4CCOCC4)C4CC4)c3)c2)c(C)n1 [Example 60, N-Cyclopropyl-3-{[4-(2,6-dimethylpyridin-3-yl)oxypyridin-2-yl]-amino}-N-(oxan-4-yl)benzamide]  0.022 µM
20. Cc1ccc(Oc2ccnc(Nc3ccc(C(=O)NC4CCN(C)CC4)cc3)c2)c(C)n1 [Example 130, 4-[4-(2,6-Dimethylpyridin-3-yloxy)pyridin-2-ylamino]-N-(1-methylpiperidin-4-yl)benzamide]  0.0189 µM
21. Cc1ccc(Oc2ccnc(Nc3cccc(C(=O)N4CCC(S(C)(=O)=O)C4)c3)c2)c(C)n1 (centres unmarked) [Example 66, (3-{[4-(2,6-Dimethylpyridin-3-yl)oxypyridin-2-yl]amino}phenyl)-(3-methylsulfonylpyrrolidin-1-yl)methanone]  0.0185 µM
22. Cc1ccc(Oc2ccnc(Nc3cccc(CN4CCN(S(=O)(=O)c5cccnc5-n5cncn5)CC4)c3)c2)c(C)n1 [Example 182, 4-(2,6-Dimethylpyridin-3-yl)oxy-N-[3-({4-[2-(1,2,4-triazol-1-yl)-pyridin-3-yl]sulfonylpiperazin-1-yl}methyl)phenyl]pyridin-2-amine]  0.0183 µM
23. Cc1cc(Oc2ccnc(Nc3cc(NS(C)(=O)=O)cc(C(N)=O)c3)c2)c(-c2ccccn2)nc1C [Example 84, 3-{[4-(5,6-Dimethyl-2-pyridin-2-ylpyridin-3-yl)oxypyridin-2-yl]-amino}-5-methanesulfonamidobenzamide]  0.016 µM
24. Cc1cc(Oc2ccnc(Nc3ccc(C(=O)NCCNC(=O)OC(C)(C)C)cc3)c2)c(-c2ccccn2)nc1C [Example 198, tert-Butyl N-{2-[(4-{[4-(5,6-dimethyl-2-pyridin-2-ylpyridin-3-yl)oxypyridin-2-yl]amino}benzoyl)amino]ethyl}carbamate]  0.0147 µM
25. Cc1ccc(Oc2ccnc(Nc3ccc(S(N)(=O)=O)cc3)c2)c(-c2ccccc2)n1 [Example 149, 4-{[4-(6-Methyl-2-phenylpyridin-3-yl)oxypyridin-2-yl]amino}-benzenesulfonamide]  0.014 µM
26. Cc1cc(Oc2ccnc(Nc3ccc(OCC(O)CNC(C)C)cc3)c2)c(-c2ccccn2)nc1C (centres unmarked) [Example 75, 1-(4-{[4-(5,6-Dimethyl-2-pyridin-2-ylpyridin-3-yl)oxypyridin-2-yl]-amino}phenoxy)-3-(propan-2-ylamino)propan-2-ol]  0.0136 µM
27. Cc1ccc(Oc2ccnc(Nc3ccc(S(N)(=O)=O)cc3)c2)c(-c2ccco2)n1 [Example 160, 4-({4-[2-(Furan-2-yl)-6-methylpyridin-3-yl]oxypyridin-2-yl}-amino)benzenesulfonamide]  0.0128 µM
28. Cc1ccc(Oc2ccnc(Nc3cccc(CN4CCN(C(=O)C5CC5)CC4)c3)c2)c(C)n1 [Example 183, N-(3-{[4-(cyclopropylcarbonyl)piperazin-1-yl]methyl}phenyl)-4-[(2,6-dimethylpyridin-3-yl)oxy]pyridin-2-amine]  0.0127 µM
29. COc1cc(Nc2cc(Oc3ccc(C)nc3-c3ccco3)ccn2)cc(OC)c1OC [Example 165, 4-[2-(Furan-2-yl)-6-methylpyridin-3-yloxy]-N-(3,4,5-trimethoxy-phenyl)pyridin-2-amine]  0.0126 µM
30. Cc1cc(Oc2ccnc(Nc3cccc(C(=O)NCc4ccccn4)c3)c2)c(-c2ccccn2)nc1C [Example 99, 3-{[4-(5,6-Dimethyl-2-pyridin-2-ylpyridin-3-yl)oxypyridin-2-yl]-amino}-N-(pyridin-2-ylmethyl)benzamide]  0.00734 µM
31. Cc1ccc(Oc2ccnc(Nc3ccc(CO)cc3)c2)c(-c2ccco2)n1 [Example 163, [4-({4-[2-(Furan-2-yl)-6-methylpyridin-3-yl]oxypyridin-2-yl}-amino)phenyl]methanol]  0.00528 µM
32. Cc1cc(Oc2ccnc(Nc3ccc(CC#N)cc3)c2)c(-c2ccccn2)nc1C [Example 74, 2-(4-{[4-(5,6-Dimethyl-2-pyridin-2-ylpyridin-3-yl)oxypyridin-2-yl]-amino}phenyl)acetonitrile]  0.00488 µM
